Results taken from PMC5626019 (Nature, 2017).
One block for each substance: values may come before it. No end group written: not given here.

What was measured:
DQB1*05:01 = conditions: competition binding to purified MHC
DQB1*04:02 = conditions: competition binding to purified MHC
PBMC = test: IFNγ and IL-5 dual ELISPOT after 14 days culture; format: cell-based, human
[1] = biological target: purified HLA A*11:01 molecules (Homo sapiens, UniProt P04439, A114D/D185E/E176A/F33Y/L180Q/S129P/T187R); test: HLA class I competition binding assay; conditions: for binding, in words: purified HLA A*11:01 in vitro
[2] = system: 26 common HLA class II alleles; test: HLA class II competition binding, panel of common alleles; parameters: species or system human

binding, in words (DQB1*05:01): strongly bound
Substance: DNEAYEMPSEEGYQD

binding, in words (DQB1*05:01): low affinity
binding, in words (DQB1*04:02): low affinity
Substance: EMPSEEGYQDYEPEA

Substance: GKTKEGVLYVGSKTK
T cell response, in words (PBMC; PBMC stimulated 14 days, peptides 5 μg/ml): apparent Class II restricted IL-5 and IFNγ response

binding, in words [1]: bound poorly
Substance: GVLYVGSKTK

Substance: MPVDPDNEAYEMPSE
binding, in words [2]: bound several alleles with lower affinity

Substance: VLYVGSKTK
IC50 [1]: 161 nM

binding, in words [1]: bound poorly
Substance: VLYVGSKTKK

Substance: phosphorylated aaS129 aa116MPVDPDNEAYEMPSEaa130: phosphorylated aaS129 epitope
IL-5 responses in PD compared with HC (PBMC; p=0.02, Fisher's exact test, 300 SFC threshold): markedly higher
